In PMC9506414, “Novel 2,6,9-Trisubstituted Purines as Potent CDK Inhibitors Alleviating Trastuzumab-Resistance of HER2-Positive Breast Cancers” (Pharmaceuticals, 2022):

Legend:
Assay in all cases: Kinome-wide inhibition profiling
Assay type in all cases: biochemical
ASK1 = target: T1, ASK1 (Homo sapiens, UniProt Q99683)
T1 construct: purchased Reaction Biology Corp
Description: (§1) In vitro CDK12/cyclinK assays for all compounds and in vitro kinome-wide inhibition profiling of 30d at 10 μM were performed by a CRO company (Reaction Biology Corp., San Diego, CA, USA).

ERN1 = target: T2, ERN1 (Homo sapiens, UniProt O75460)
T2 construct: purchased Reaction Biology Corp
Description: as §1

CAMK1d = target: T3, CAMK1d (Homo sapiens, UniProt Q8IU85)
T3 construct: purchased Reaction Biology Corp
Description: as §1

TYK2 = target: T4, TYK2 (Homo sapiens, UniProt P29597)
T4 construct: purchased Reaction Biology Corp
T4 sequence (P29597 whole entry): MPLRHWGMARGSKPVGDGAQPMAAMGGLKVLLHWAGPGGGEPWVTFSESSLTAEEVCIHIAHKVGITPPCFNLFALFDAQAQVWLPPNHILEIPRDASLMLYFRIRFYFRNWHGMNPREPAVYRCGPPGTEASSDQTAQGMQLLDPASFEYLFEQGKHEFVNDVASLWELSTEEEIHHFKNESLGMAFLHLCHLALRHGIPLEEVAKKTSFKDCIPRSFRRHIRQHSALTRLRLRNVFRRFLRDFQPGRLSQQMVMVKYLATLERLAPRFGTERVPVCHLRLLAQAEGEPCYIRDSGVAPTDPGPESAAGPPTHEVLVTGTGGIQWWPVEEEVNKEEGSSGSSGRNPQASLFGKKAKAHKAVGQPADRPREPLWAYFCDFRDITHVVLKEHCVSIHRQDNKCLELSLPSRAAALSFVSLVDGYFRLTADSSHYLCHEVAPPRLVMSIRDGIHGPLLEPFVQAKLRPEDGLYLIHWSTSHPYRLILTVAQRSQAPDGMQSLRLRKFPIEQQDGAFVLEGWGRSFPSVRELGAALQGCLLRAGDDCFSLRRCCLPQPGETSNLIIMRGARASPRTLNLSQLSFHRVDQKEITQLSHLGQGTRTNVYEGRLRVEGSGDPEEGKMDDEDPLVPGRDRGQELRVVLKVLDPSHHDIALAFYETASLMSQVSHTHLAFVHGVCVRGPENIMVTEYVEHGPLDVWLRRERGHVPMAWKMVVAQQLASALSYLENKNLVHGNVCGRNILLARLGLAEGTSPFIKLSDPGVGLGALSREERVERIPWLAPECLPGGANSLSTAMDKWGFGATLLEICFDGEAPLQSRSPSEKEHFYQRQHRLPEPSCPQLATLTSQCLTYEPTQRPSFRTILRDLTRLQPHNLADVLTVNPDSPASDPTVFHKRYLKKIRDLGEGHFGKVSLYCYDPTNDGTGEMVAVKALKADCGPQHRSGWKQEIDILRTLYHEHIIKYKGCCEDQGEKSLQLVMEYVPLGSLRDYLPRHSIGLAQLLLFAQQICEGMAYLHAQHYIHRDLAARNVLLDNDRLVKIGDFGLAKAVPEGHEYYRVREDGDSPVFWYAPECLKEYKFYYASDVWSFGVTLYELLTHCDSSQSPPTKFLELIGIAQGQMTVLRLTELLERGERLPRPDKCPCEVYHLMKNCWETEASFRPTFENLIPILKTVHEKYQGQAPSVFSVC
Description: as §1

TRKA = target: T5, TRKA (Homo sapiens, UniProt P04629)
T5 construct: purchased Reaction Biology Corp
Description: as §1

ACVRL1 = target: T6, ACVRL1 (Homo sapiens, UniProt P37023)
T6 construct: purchased Reaction Biology Corp
Description: as §1

PLK1 = target: T7, PLK1 (Homo sapiens, UniProt P53350)
T7 construct: purchased Reaction Biology Corp
Description: as §1

CLK4 = target: T8, CLK4 (Homo sapiens, UniProt Q9HAZ1)
T8 construct: purchased Reaction Biology Corp
Description: as §1

GSK3a = target: T9, GSK3a (Homo sapiens, UniProt P49840)
T9 construct: purchased Reaction Biology Corp
Description: as §1

LATS2 = target: T10, LATS2 (Homo sapiens, UniProt Q9NRM7)
T10 construct: purchased Reaction Biology Corp
Description: as §1

EPHA4 = target: T11, EPHA4 (Homo sapiens, UniProt P54764)
T11 construct: purchased Reaction Biology Corp
T11 sequence (P54764 20-986): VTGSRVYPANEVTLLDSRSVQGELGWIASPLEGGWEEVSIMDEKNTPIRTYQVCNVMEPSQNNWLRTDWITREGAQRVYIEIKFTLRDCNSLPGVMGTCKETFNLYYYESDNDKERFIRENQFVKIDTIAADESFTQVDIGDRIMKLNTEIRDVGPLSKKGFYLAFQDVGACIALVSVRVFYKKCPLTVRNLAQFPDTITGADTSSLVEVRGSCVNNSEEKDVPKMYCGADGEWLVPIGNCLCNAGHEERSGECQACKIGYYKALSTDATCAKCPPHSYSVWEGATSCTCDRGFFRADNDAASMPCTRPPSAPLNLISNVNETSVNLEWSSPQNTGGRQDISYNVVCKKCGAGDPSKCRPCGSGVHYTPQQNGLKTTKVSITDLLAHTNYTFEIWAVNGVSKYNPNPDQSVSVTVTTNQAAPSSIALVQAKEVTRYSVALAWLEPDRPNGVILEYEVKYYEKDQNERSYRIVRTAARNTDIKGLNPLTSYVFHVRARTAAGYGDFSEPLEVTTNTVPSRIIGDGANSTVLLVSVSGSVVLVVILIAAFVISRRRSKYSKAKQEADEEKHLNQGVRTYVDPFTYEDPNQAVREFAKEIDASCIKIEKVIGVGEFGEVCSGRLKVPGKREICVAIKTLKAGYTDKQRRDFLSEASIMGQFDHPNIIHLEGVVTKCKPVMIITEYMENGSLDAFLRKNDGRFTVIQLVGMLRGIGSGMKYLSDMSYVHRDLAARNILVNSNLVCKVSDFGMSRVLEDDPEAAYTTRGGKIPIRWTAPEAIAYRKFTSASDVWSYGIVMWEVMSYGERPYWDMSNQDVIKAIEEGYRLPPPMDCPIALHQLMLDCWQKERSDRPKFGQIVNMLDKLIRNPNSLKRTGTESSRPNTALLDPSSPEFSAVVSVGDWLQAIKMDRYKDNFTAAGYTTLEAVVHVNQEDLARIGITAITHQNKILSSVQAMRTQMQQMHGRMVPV
Description: as §1

MUSK = target: T12, MUSK (Homo sapiens, UniProt O15146)
T12 construct: purchased Reaction Biology Corp
Description: as §1

CAMK1g = target: T13, CAMK1g (Homo sapiens, UniProt Q96NX5)
T13 construct: purchased Reaction Biology Corp
Description: as §1

ERK2 = target: T14, ERK2 (Homo sapiens, UniProt P28482)
T14 construct: purchased Reaction Biology Corp
T14 sequence (P28482 whole entry): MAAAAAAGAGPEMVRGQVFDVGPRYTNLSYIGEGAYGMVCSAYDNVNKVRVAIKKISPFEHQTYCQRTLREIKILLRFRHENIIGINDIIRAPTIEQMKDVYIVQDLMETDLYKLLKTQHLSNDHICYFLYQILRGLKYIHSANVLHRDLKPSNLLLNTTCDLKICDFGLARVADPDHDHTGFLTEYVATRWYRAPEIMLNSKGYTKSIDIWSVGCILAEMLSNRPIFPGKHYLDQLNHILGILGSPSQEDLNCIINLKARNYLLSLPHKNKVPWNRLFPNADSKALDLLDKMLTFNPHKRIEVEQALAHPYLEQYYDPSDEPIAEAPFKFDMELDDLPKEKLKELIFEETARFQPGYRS
Description: as §1

LIMK1 = target: T15, LIMK1 (Homo sapiens, UniProt P53667)
T15 construct: purchased Reaction Biology Corp
T15 sequence (P53667 whole entry): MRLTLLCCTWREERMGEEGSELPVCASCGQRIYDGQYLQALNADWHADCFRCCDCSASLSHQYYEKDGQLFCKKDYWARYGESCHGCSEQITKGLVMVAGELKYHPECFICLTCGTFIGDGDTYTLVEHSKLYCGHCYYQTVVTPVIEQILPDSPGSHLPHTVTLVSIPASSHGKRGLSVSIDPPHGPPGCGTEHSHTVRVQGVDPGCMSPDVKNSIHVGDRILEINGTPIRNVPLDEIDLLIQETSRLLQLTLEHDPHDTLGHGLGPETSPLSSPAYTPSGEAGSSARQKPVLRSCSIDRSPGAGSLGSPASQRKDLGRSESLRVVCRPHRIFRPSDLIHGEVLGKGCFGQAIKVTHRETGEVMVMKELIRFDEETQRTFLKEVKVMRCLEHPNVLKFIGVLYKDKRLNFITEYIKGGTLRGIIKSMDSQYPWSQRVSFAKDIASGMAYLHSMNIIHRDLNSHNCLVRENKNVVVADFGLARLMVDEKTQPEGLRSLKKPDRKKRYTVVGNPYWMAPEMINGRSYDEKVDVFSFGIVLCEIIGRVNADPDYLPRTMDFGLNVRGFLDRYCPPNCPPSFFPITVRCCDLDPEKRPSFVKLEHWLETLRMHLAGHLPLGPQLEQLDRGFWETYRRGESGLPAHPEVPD
Description: as §1

FLT3 = target: T16, FLT3 (Homo sapiens, UniProt P36888)
T16 construct: purchased Reaction Biology Corp
Description: as §1

MNK2 = target: T17, MNK2 (Homo sapiens, UniProt Q9HBH9)
T17 construct: purchased Reaction Biology Corp
Description: as §1

S6K1 = target: T18, S6K1 (Homo sapiens, UniProt P23443)
T18 construct: purchased Reaction Biology Corp
Description: as §1

DMPK = target: T19, DMPK (Homo sapiens, UniProt Q09013)
T19 construct: purchased Reaction Biology Corp
Description: as §1

MAST3 = target: T20, MAST3 (Homo sapiens, UniProt O60307)
T20 construct: purchased Reaction Biology Corp
Description: as §1

AurkC = target: T21, AurkC (Homo sapiens, UniProt Q9UQB9)
T21 construct: purchased Reaction Biology Corp
Description: as §1

WEE1 = target: T22, WEE1 (Homo sapiens, UniProt P30291)
T22 construct: purchased Reaction Biology Corp
Description: as §1

BMX = target: T23, BMX (Homo sapiens, UniProt P51813)
T23 construct: purchased Reaction Biology Corp
Description: as §1

PRKD1 = target: T24, PRKD1 (Homo sapiens, UniProt Q15139)
T24 construct: purchased Reaction Biology Corp
Description: as §1

DCAMKL1 = target: T25, DCAMKL1 (Homo sapiens, UniProt O15075)
T25 construct: purchased Reaction Biology Corp
Description: as §1

CTK = target: T26, CTK (Homo sapiens, UniProt P42679)
T26 construct: purchased Reaction Biology Corp
Description: as §1

DYRK3 = target: T27, DYRK3 (Homo sapiens, UniProt O43781)
T27 construct: purchased Reaction Biology Corp
Description: as §1

P38-delta = target: T28, P38-delta (Homo sapiens, UniProt O15264)
T28 construct: purchased Reaction Biology Corp
Description: as §1

MAP3K1 = target: T29, MAP3K1 (Homo sapiens, UniProt Q13233)
T29 construct: purchased Reaction Biology Corp
Description: as §1

NEK2 = target: T30, NEK2 (Homo sapiens, UniProt P51955)
T30 construct: purchased Reaction Biology Corp
Description: as §1

SGK1 = target: T31, SGK1 (Homo sapiens, UniProt O00141)
T31 construct: purchased Reaction Biology Corp
T31 sequence (O00141 whole entry): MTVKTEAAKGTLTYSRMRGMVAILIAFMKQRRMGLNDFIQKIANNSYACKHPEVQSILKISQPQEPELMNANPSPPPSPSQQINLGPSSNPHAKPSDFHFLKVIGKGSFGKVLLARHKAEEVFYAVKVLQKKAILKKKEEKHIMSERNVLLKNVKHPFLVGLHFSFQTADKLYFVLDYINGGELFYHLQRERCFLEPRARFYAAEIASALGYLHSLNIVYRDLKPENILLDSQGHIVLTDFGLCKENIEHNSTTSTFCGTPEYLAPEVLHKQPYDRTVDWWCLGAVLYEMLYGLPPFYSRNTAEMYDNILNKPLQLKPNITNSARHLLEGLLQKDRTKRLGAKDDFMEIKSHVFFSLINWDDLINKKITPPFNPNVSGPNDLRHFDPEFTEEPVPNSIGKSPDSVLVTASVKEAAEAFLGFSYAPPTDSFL
Description: as §1

AKT2 = target: T32, AKT2 (Homo sapiens, UniProt P31751)
T32 construct: purchased Reaction Biology Corp
Description: as §1

CAMK2a = target: T33, CAMK2a (Homo sapiens, UniProt Q9UQM7)
T33 construct: purchased Reaction Biology Corp
Description: as §1

ARAF = target: T34, ARAF (Homo sapiens, UniProt P10398)
T34 construct: purchased Reaction Biology Corp
T34 sequence (P10398 whole entry): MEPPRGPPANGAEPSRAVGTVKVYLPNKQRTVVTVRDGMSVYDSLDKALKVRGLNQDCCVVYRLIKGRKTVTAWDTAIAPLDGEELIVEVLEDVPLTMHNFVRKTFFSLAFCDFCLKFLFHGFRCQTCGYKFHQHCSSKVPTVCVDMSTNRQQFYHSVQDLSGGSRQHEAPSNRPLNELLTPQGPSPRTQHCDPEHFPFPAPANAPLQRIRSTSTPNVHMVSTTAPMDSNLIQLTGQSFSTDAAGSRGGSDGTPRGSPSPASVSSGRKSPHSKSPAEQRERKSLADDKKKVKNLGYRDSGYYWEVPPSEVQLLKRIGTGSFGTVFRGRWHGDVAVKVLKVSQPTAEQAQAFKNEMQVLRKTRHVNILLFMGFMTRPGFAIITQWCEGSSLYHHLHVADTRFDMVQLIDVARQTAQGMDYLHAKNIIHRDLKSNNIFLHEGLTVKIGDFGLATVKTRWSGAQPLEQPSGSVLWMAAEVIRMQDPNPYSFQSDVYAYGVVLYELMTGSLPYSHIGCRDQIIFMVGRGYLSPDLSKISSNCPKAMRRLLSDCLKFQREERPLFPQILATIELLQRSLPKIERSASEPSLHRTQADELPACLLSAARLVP
Description: as §1

MST4 = target: T35, MST4 (Homo sapiens, UniProt Q9P289)
T35 construct: purchased Reaction Biology Corp
T35 sequence (Q9P289 whole entry): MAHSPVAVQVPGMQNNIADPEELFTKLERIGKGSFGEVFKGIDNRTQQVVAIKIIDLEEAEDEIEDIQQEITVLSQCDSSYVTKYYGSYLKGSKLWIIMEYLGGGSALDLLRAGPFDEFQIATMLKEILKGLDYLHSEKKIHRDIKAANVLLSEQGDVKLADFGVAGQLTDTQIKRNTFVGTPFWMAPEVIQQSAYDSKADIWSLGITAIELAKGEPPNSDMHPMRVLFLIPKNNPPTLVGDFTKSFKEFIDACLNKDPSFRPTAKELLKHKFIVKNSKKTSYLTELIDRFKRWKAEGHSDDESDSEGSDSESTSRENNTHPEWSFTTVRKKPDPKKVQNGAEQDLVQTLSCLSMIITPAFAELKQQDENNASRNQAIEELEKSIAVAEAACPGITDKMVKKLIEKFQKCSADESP
Description: as §1

P38-gamma = target: T36, P38-gamma (Homo sapiens, UniProt P53778)
T36 construct: purchased Reaction Biology Corp
Description: as §1

MAPKAPK2 = target: T37, MAPKAPK2 (Homo sapiens, UniProt P49137)
T37 construct: purchased Reaction Biology Corp
T37 sequence (P49137 whole entry): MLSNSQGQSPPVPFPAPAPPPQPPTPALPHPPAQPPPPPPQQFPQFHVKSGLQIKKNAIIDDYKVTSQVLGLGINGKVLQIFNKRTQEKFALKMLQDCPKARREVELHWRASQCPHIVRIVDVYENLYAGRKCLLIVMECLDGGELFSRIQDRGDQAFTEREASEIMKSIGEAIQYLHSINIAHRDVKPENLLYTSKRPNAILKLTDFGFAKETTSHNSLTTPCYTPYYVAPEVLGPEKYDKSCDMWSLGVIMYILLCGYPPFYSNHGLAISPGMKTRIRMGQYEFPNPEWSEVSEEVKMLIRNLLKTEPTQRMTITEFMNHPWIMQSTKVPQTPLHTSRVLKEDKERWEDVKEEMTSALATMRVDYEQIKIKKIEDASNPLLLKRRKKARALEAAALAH
Description: as §1

ZAP70 = target: T38, ZAP70 (Homo sapiens, UniProt P43403)
T38 construct: purchased Reaction Biology Corp
Description: as §1

TXK = target: T39, TXK (Homo sapiens, UniProt P42681)
T39 construct: purchased Reaction Biology Corp
Description: as §1

PRKG2 = target: T40, PRKG2 (Homo sapiens, UniProt Q13237)
T40 construct: purchased Reaction Biology Corp
Description: as §1

CDK16 = target: T41, CDK16 (Homo sapiens, UniProt Q00536)
T41 construct: purchased Reaction Biology Corp
Description: as §1

DDR2 = target: T42, DDR2 (Homo sapiens, UniProt Q16832)
T42 construct: purchased Reaction Biology Corp
Description: as §1

MYO3b = target: T43, MYO3b (Homo sapiens, UniProt Q8WXR4)
T43 construct: purchased Reaction Biology Corp
Description: as §1

MELK = target: T44, MELK (Homo sapiens, UniProt Q14680)
T44 construct: purchased Reaction Biology Corp
Description: as §1

Q: With `CCn1cnc2c(NCc3ccc(-c4ccccn4)nc3)nc(-c3ccc(N)nc3)nc21` [Compound 30d, N-([2,2′-Bipyridin]-5-ylmethyl)-2-(6-aminopyridin-3-yl)-9-ethyl-9H-purin-6-amine] as the compound, how does the remaining activity at 10 µM (ASK1) read?
A: 18.4%

Q: What about the remaining activity at 10 µM (ERN1) of the same compound?
A: 50.8%

Q: And the remaining activity at 10 µM (CAMK1d)?
A: 58%

Q: What about the remaining activity at 10 µM (TYK2) of the same compound?
A: 90.7%

Q: What about the remaining activity at 10 µM (TRKA) of the same compound?
A: 28.7%

Q: What about the remaining activity at 10 µM (ACVRL1) of the same compound?
A: 105%

Q: And the remaining activity at 10 µM (PLK1)?
A: 68.3%

Q: And the remaining activity at 10 µM (CLK4)?
A: 28.7%

Q: What about the remaining activity at 10 µM (GSK3a) of the same compound?
A: 10.6%

Q: And the remaining activity at 10 µM (LATS2)?
A: 77.4%

Q: And the inhibition at 10 µM (EPHA4)?
A: > 95%

Q: What about the remaining activity at 10 µM (EPHA4) of the same compound?
A: 3.6%

Q: And the remaining activity at 10 µM (MUSK)?
A: 10.2%

Q: And the remaining activity at 10 µM (CAMK1g)?
A: 54.3%

Q: And the remaining activity at 10 µM (ERK2)?
A: 10.6%

Q: And the remaining activity at 10 µM (LIMK1)?
A: 59.9%

Q: What about the remaining activity at 10 µM (FLT3) of the same compound?
A: 40.2%

Q: What about the remaining activity at 10 µM (MNK2) of the same compound?
A: 91.2%

Q: And the remaining activity at 10 µM (S6K1)?
A: 92.1%

Q: And the remaining activity at 10 µM (DMPK)?
A: 90.4%

Q: And the remaining activity at 10 µM (MAST3)?
A: 39.3%

Q: What about the remaining activity at 10 µM (AurkC) of the same compound?
A: 25.5%

Q: And the remaining activity at 10 µM (WEE1)?
A: 90.2%

Q: And the remaining activity at 10 µM (BMX)?
A: 141%

Q: And the remaining activity at 10 µM (PRKD1)?
A: 70.3%

Q: And the remaining activity at 10 µM (DCAMKL1)?
A: 72.6%

Q: What about the remaining activity at 10 µM (CTK) of the same compound?
A: 87.6%

Q: And the remaining activity at 10 µM (DYRK3)?
A: 58.6%

Q: And the remaining activity at 10 µM (P38-delta)?
A: 102%

Q: What about the remaining activity at 10 µM (MAP3K1) of the same compound?
A: 87%

Q: What about the remaining activity at 10 µM (NEK2) of the same compound?
A: 91.1%

Q: And the remaining activity at 10 µM (SGK1)?
A: 84.9%

Q: What about the remaining activity at 10 µM (AKT2) of the same compound?
A: 100%

Q: What about the remaining activity at 10 µM (CAMK2a) of the same compound?
A: 64%

Q: And the remaining activity at 10 µM (ARAF)?
A: 79.5%

Q: What about the remaining activity at 10 µM (MST4) of the same compound?
A: 45.8%

Q: What about the remaining activity at 10 µM (P38-gamma) of the same compound?
A: 118%

Q: And the remaining activity at 10 µM (MAPKAPK2)?
A: 102%

Q: What about the remaining activity at 10 µM (ZAP70) of the same compound?
A: 100%

Q: What about the remaining activity at 10 µM (TXK) of the same compound?
A: 34.9%

Q: What about the remaining activity at 10 µM (PRKG2) of the same compound?
A: 99.5%

Q: And the remaining activity at 10 µM (CDK16)?
A: 17.5%

Q: What about the remaining activity at 10 µM (DDR2) of the same compound?
A: 87.2%

Q: What about the remaining activity at 10 µM (MYO3b) of the same compound?
A: 68.1%

Q: And the remaining activity at 10 µM (MELK)?
A: 21.2%
